As a reminder, the Cmax is the maximum level reached in the sampled fluid or tissue. As usually defined, the AUC is concentration integrated over time. A word on the Tmax: it is the time at which the peak concentration occurs. Usually clearance stands for the rate of elimination divided by the concentration.

“And” between values parts separate entries of the source, which are not always exact repeats. Identical values can stand only once. Like-named read-outs stand apart in the source and are kept apart here.

The text below walks through data of patent US20210276967A1 (OSPEDALE SAN RAFFAELE S.R.L., priority 2018, published 2021).

The nature of the data set: Mouse PK studies (plasma and liver exposure). The data set is classed as in vivo, C57BL/6 mice. On the set-up: Liver [mM]: unit not given here. The settings on record: for Plasma concentrations / concentration at 24 h / concentration at 8 h / concentration at 0.25 h / concentration at 0.5 h / concentration at 1 h / concentration at 2 h / concentration at 4 h / concentration at 6 h: PO 100 mpk in 0.5% methocell; for AUC(0-t): read-out: AUC (0-24 h); for AUC: read-out: AUC Extrap. The text has this: C57BL/6 mice are used to evaluate plasma and liver exposure and pharmacokinetic parameters after intravenous and oral administration (from 2 to 200 mpk according to the compound tested and the administration route). 12 (+3 spare) healthy C57BL/6N male mice are obtained from Charles River S.p.A. Calco (Como), Italy. Animals are ordered weighing 21 to 27 grams and approximately 7 weeks old. Before and during testing, animals are housed in Individual Ventilated Cages (IVCs Tecniplast) with sawdust as bedding (three animals for cage). Cages are identified by a color code label recording the sample ID, animal number and details of treatment (route, dose and sex). Animals are identified by unique number on tail via permanent marker. Animal room controls are set to maintain temperature within the range from 20 to 24° C. and relative humidity within the range from 40 to 70% and an average daily airflow of at least 10 fresh air changes per hour. Actual conditions are recorded. The room is lit by fluorescent tubes controlled to give an artificial cycle of 12 hours light and 12 hours dark each day. All animals are weighed immediately before testing. Animals are dosed IV in a fed state and PO in a fasted state.
Compounds (from 0.4 to 20 mg/mL according to the compound tested and the administration route) are dissolved in DMSO/PEG400/H2O (20/60/20) for IV administration and 0.5% Methocel E50 or 20% Hydroxypropyl-β-cyclodextrin (HP-β-CD) in citrate buffer pH=5 for PO administration. The appropriate dose volume of the test item, calculated for each animal according to body weight (administration volume: 5 mL/kg for IV or 5 mL/kg or 10 mL/kg for PO), is administered by injection into lateral tail vein using 2.5 mL syringe (BD Plasipak) for IV administration and administered orally by gavage using 5 mL Syringe (BD Plastipak) for PO administration. Whole blood sample (about 0.200 mL) is collected via retro orbital sinus using Isoflurane as anesthetic. Blood is collected in Li-Heparin Sartsted® gel tubes appropriately labeled indicating animal number and time point. Tubes are put in wet ice and then centrifuged within 15 minutes from blood collection. Centrifugation is performed using a Heraeus Multifuge® 3S/3S-R set, at 2200×g for 10 minutes, internal temperature is kept at 4° C. After the centrifugation, about 100 μL of plasma samples are obtained and immediately transferred to 1.5 mL Eppendorf tubes and frozen at −20° C. (24/24 h alarmed). Whole blood samples are collected at different times point (0-0.25-0.5-1-2-4-6-8-24 hours) after dosing and kept frozen (−20° C.) until assayed by LC/MS/MS. Livers are explanted at different time point (0-8-24 hours), washed with saline solution, transferred to Eppendorf tubes and frozen at −80° C. until assayed by LC/MS/MS. Analytical procedures: Plasma samples are extracted using Liquid Handling Robot Hamilton StarPlus by protein precipitation with acetonitrile. Then the samples are centrifuged (3000 rpm×15 min at 4° C.) and the supernatant transferred and dried under nitrogen. The samples are reconstituted in water/acetonitrile 90/10 or 50/50 and then injected directly into an UPLC column. Sample analyses are performed using an API 4000 or/and API 5000 or/and API 4000QTrap Mass Spectrometer interfaced via the Turbo Ion Spray (ESI) to an LC system consisting of an Acquity UPLC Sample Manager autosampler and Acquity UPLC Binary Solvent Manager Pump. The results are calculated using Analyst Software linear regression with 1/x*x weighting. The Assay Precision is calculated for the Quality Controls by Watson Lims database.
Cmax is the maximum compound concentration from oral dosing; Tmax is the time at which Cmax is reached; AUC (0-24) is the area under the concentration vs time curve from 0 to 24 hours; AUC extrap is the area under the curve (AUC) extrapolated to infinity, from dosing time based on the last observed concentration. […]

Setting [1] is: male, C57BL/6N, mouse, plasma, po, 100 mg/kg, plasma, PO 100 mg/kg in 0.5% methocell, mice, Mean.
Where [2] appears, read: male, C57BL/6N, mouse, plasma, po, 100 mg/kg, plasma, PO 100 mg/kg in 0.5% methocell, mice, individual subject.
Where [3] appears, read: plasma, PO 100 mg/kg in 0.5% methocell, mice, individual subject, 100 mg/kg.

With `Nc1ccc(C(=O)Nc2cc(F)c(F)c(F)c2)cc1S(N)(=O)=O` [Example E3, 4-amino-3-sulfamoyl-N-(3,4,5-trifluorophenyl)benzamide], the Plasma concentrations (0.25 Hours, individual subject, 100 mg/kg) was 5.05 µM and 3.95 µM; the Plasma concentrations (0.5 Hours, individual subject, 100 mg/kg) was 7.23 µM and 10.6 µM; the Plasma concentrations (1 Hours, individual subject, 100 mg/kg) is 17.2 µM and 9.61 µM; the Plasma concentrations (2 Hours, individual subject, 100 mg/kg) was 10.7 µM and 17.0 µM; the Plasma concentrations (4 Hours, individual subject, 100 mg/kg) was 11.2 µM and 10.6 µM; the Plasma concentrations (6 Hours, individual subject, 100 mg/kg) is 10.5 µM and 9.06 µM. Moreover, the Plasma concentrations by setting is: (8 Hours, individual subject, 100 mg/kg) 10.4 µM and 12.1 µM; (24 Hours, individual subject, 100 mg/kg) 0.268 µM and 0.184 µM and 0.0502 µM. Moreover, the concentration at 24 h is 125.87 µM and 119.96 µM (8 Hours, individual subject, 100 mg/kg, read-out: Liver concentrations); 0.6272 µM and 3.0342 µM and 1.8500 µM (24 Hours, individual subject, 100 mg/kg, read-out: Liver concentrations); 2 µM (male, C57BL/6N, mouse, liver, po, 100 mg/kg, 24 Hours, Mean, read-out: Liver concentrations); 0.2 µM (male, C57BL/6N, mouse, plasma, po, 100 mg/kg, 24 Hours, Mean, read-out: Plasma concentrations). Also, the Kp at 8 h (male, C57BL/6N, mouse, liver, 100 mpk, 8 h after PO administration, read-out: liver levels higher than plasma (ratio liver/plasma concentration)) was 13. For the same compound, the concentration at 8 h was determined as 129 µM (male, C57BL/6N, mouse, liver, po, 100 mg/kg, 8 Hours, Mean, read-out: Liver concentrations); 143 µM (male, C57BL/6N, mouse, liver, po, 100 mg/kg, 8 Hours, individual subject, read-out: Liver concentrations); 10 µM (male, C57BL/6N, mouse, plasma, po, 100 mg/kg, 8 Hours, Mean, read-out: Plasma concentrations); 9.01 µM (male, C57BL/6N, mouse, plasma, po, 100 mg/kg, 8 Hours, individual subject, read-out: Plasma concentrations). Also, the concentration at 0.25 h by setting is: (male, C57BL/6N, mouse, plasma, po, 100 mg/kg, 0.25 Hours, Mean, read-out: Plasma concentrations) 5 µM; (male, C57BL/6N, mouse, plasma, po, 100 mg/kg, 0.25 Hours, individual subject, read-out: Plasma concentrations) 6.15 µM. The concentration at 0.5 h (male, C57BL/6N, mouse, plasma, po, 100 mg/kg, 0.5 Hours, Mean, read-out: Plasma concentrations) was determined as 9 µM and the concentration at 0.5 h (male, C57BL/6N, mouse, plasma, po, 100 mg/kg, 0.5 Hours, individual subject, read-out: Plasma concentrations) is 7.77 µM. Moreover, the concentration at 1 h by setting is: (male, C57BL/6N, mouse, plasma, po, 100 mg/kg, 1 Hours, Mean, read-out: Plasma concentrations) 12 µM; (male, C57BL/6N, mouse, plasma, po, 100 mg/kg, 1 Hours, individual subject, read-out: Plasma concentrations) 10.2 µM. Besides, the concentration at 2 h amounted to 14 µM (male, C57BL/6N, mouse, plasma, po, 100 mg/kg, 2 Hours, Mean, read-out: Plasma concentrations) and 13 µM (male, C57BL/6N, mouse, plasma, po, 100 mg/kg, 2 Hours, individual subject, read-out: Plasma concentrations). In addition, the concentration at 4 h by setting is: (male, C57BL/6N, mouse, plasma, po, 100 mg/kg, 4 Hours, Mean, read-out: Plasma concentrations) 11 µM; (male, C57BL/6N, mouse, plasma, po, 100 mg/kg, 4 Hours, individual subject, read-out: Plasma concentrations) 10.9 µM. In addition, the concentration at 6 h by setting is: (male, C57BL/6N, mouse, plasma, po, 100 mg/kg, 6 Hours, Mean, read-out: Plasma concentrations) 10 µM; (male, C57BL/6N, mouse, plasma, po, 100 mg/kg, 6 Hours, individual subject, read-out: Plasma concentrations) 11.9 µM. The peak level (male, C57BL/6N, mouse, plasma, po, 100 mg/kg, PO 100 mg/kg in 0.5% methocell, mice, Mean) (Cmax) was 16 µM; the Cmax (male, C57BL/6N, mouse, plasma, po, 100 mg/kg, PO 100 mg/kg in 0.5% methocell, mice, individual subject) stood at 17.2 µM; the Cmax under setting [3] is 17 µM and 13 µM. The AUC(0-t) under setting [1] was 172 µM·h and the AUC(0-t) under setting [2] is 171 µM·h. Besides, the AUC is, setting by setting: under setting [1], 173 µM·h; under setting [2], 172 µM·h. Besides, the Tmax stood at 1.7 h (male, C57BL/6N, mouse, plasma, po, 100 mg/kg, plasma, PO 100 mg/kg in 0.5% methocell, mice, Mean, read-out: Tmax); 1 h (male, C57BL/6N, mouse, plasma, po, 100 mg/kg, plasma, PO 100 mg/kg in 0.5% methocell, mice, individual subject, read-out: Tmax); 2.00 h under setting [3]. The clearance (male, C57BL/6N, mouse, plasma, mice, read-out: in vivo clearance) stood at 10 mL/min/kg. Besides, the “AUC (0-24 h)” value under setting [3] was 186 µM·h and 160 µM·h. Moreover, under setting [3], the “AUC Extrap” value is 186.4 µM·h and 161.7 µM·h.
As for `Cc1cc(N)c(S(N)(=O)=O)cc1C(=O)Nc1cc(F)c(F)c(F)c1` [Example E17, 4-amino-2-methyl-5-sulfamoyl-N-(3,4,5-trifluorophenyl)benzamide], the “Liver [mM]” value is, setting by setting: (PO 25 mg/kg in 0.5% methocell, mice) 317; (PO 75 mg/kg in 0.5% methocell, mice) 747; (PO 150 mg/kg in 0.5% methocell, mice) 677. For the same compound, the Kp amounted to 15.9 (male, C57BL/6N, mouse, liver, PO 25 mg/kg in 0.5% methocell, mice); 14.4 (male, C57BL/6N, mouse, liver, PO 75 mg/kg in 0.5% methocell, mice); 13.8 (male, C57BL/6N, mouse, liver, PO 150 mg/kg in 0.5% methocell, mice).
